15 compounds from the supplement of paper PMC10627819 can be followed below.

Experiment in all cases: Bliss interaction score (quartile over a dose matrix) (fitness difference); higher = more antagonism (negative = synergy)
One experiment has as its system B. subtilis 168. A digest of the protocol:
(§1)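 The Bliss score was calculated by subtracting the expected fitness, the product of single-drug values, from the observed fitness. OD595 at entry into stationary phase, over the plate's robust no-drug mean and capped at 1, served as the fitness readout. Single-drug values were inferred from combination data, and scores are summarised by quartiles across technical, biological and donor/recipient replicates.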

The next experiment concerns S. aureus DSM 20231. A digest of the protocol: as §1
For another experiment, the system named is S. aureus Newman. A digest of the protocol:
as §1

Another experiment concerns S. pneumoniae D39V. Summed up:
as §1
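Also: first quartile when negative (synergy) and third quartile when positive (antagonism).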

For the compound `C[n+]1ccc(-c2cc[n+](C)cc2)cc1` [Paraquat] + Oc1cc(Cl)ccc1Oc1ccc(Cl)cc1Cl [Triclosan], the Bliss interaction score with B. subtilis 168 was -0.188; in the experiment with S. aureus DSM 20231 it was 0.0434; in the experiment with S. aureus Newman, -0.0576; with S. pneumoniae D39V, 0.058.
The corresponding values for `O=C(O)[C@H]1/C(=C/CO)O[C@@H]2CC(=O)N21` [Clavulanic] + CO[C@H]1/C=C/O[C@@]2(C)Oc3c(C)c(O)c4c(O)c(c(/C=N/N5CCN(C)CC5)c(O)c4c3C2=O)NC(=O)/C(C)=C\C=C\[C@H](C)[C@H](O)[C@@H](C)[C@@H](O)[C@@H](C)[C@H](OC(C)=O)[C@@H]1C [Rifampicin] are 0.0612, 0.112, -0.0368 and -0.0766.
As for `O=C(O)[C@H]1/C(=C/CO)O[C@@H]2CC(=O)N21` [Clavulanic] + C[C@@H]1O[C@@H]1P(=O)(O)O [Fosfomycin], the Bliss interaction score is -0.089 in the experiment on B. subtilis 168, 0.0474 in the experiment with S. aureus DSM 20231, 0.258 with S. aureus Newman and -0.0291 in the experiment with S. pneumoniae D39V.
Turning to `CC1=C(C(=O)O)N2C(=O)[C@@H](NC(=O)[C@H](N)c3ccccc3)[C@H]2SC1` [Cephalexin] + O=C(O[C@@H]1Cc2c(O)cc(O)cc2O[C@@H]1c1cc(O)c(O)c(O)c1)c1cc(O)c(O)c(O)c1 [EGCG], the Bliss interaction score was -0.0668 in the experiment with B. subtilis 168, -0.071 with S. aureus DSM 20231, -0.115 in the experiment with S. aureus Newman and 0.0582 in the experiment on S. pneumoniae D39V.
With `CNC(C)C1CCC(N)C(OC2C(N)CC(N)C(OC3OCC(C)(O)C(NC)C3O)C2O)O1` (stereo not given) [Gentamicin] + CC1(C)S[C@@H]2[C@H](NC(=O)Cc3ccccc3)C(=O)N2[C@H]1C(=O)O [PenicillinG], the Bliss interaction score was 0.0952 in the experiment with B. subtilis 168 (main component drawn), 0.0582 with S. aureus DSM 20231 (main component drawn), -0.0512 with S. aureus Newman (main component drawn) and 0.0914 in the experiment on S. pneumoniae D39V (main component drawn).
On to `O=C(O)[C@H]1/C(=C/CO)O[C@@H]2CC(=O)N21` [Clavulanic] + C[C@H]1COc2c(N3CCN(C)CC3)c(F)cc3c(=O)c(C(=O)O)cn1c23 [Levofloxacin], for which the Bliss interaction score in the experiment on B. subtilis 168 was -0.024; in the experiment with S. aureus DSM 20231, -0.222; in the experiment on S. aureus Newman, 0.242; in the experiment with S. pneumoniae D39V it was -0.197.
Take `O=C(O)[C@H]1/C(=C/CO)O[C@@H]2CC(=O)N21` [Clavulanic] + CC[C@H]1OC(=O)[C@H](C)[C@@H](O[C@H]2C[C@@](C)(OC)[C@@H](O)[C@H](C)O2)[C@H](C)[C@@H](O[C@@H]2O[C@H](C)C[C@H](N(C)C)[C@H]2O)[C@](C)(O)C[C@@H](C)C(=O)[C@H](C)[C@@H](O)[C@]1(C)O [Erythromycin]: the Bliss interaction score is 0.0508 in the experiment with B. subtilis 168, -0.151 in the experiment on S. aureus DSM 20231, 0.237 in the experiment on S. aureus Newman and -0.0371 in the experiment with S. pneumoniae D39V.
Turning to `O=C(O)[C@H]1/C(=C/CO)O[C@@H]2CC(=O)N21` [Clavulanic] + CN[C@H](CC(C)C)C(=O)N[C@H]1C(=O)N[C@@H](CC(N)=O)C(=O)N[C@H]2C(=O)N[C@H]3C(=O)N[C@H](C(=O)N[C@H](C(=O)O)c4cc(O)cc(O)c4-c4cc3ccc4O)[C@H](O)c3ccc(c(Cl)c3)Oc3cc2cc(c3O[C@@H]2O[C@H](CO)[C@@H](O)[C@H](O)[C@H]2O[C@H]2C[C@](C)(N)[C@H](O)[C@H](C)O2)Oc2ccc(cc2Cl)[C@H]1O [Vancomycin], the Bliss interaction score in the experiment on B. subtilis 168 was -0.136; in the experiment on S. aureus DSM 20231, 0.0812; in the experiment with S. aureus Newman, -0.0409; in the experiment on S. pneumoniae D39V, -0.0704.
In the case of `CC[C@H]1OC(=O)[C@H](C)[C@@H](O[C@H]2C[C@@](C)(OC)[C@@H](O)[C@H](C)O2)[C@H](C)[C@@H](O[C@@H]2O[C@H](C)C[C@H](N(C)C)[C@H]2O)[C@](C)(O)C[C@@H](C)CN(C)[C@H](C)[C@@H](O)[C@]1(C)O` [Azithromycin] + CN[C@H](CC(C)C)C(=O)N[C@H]1C(=O)N[C@@H](CC(N)=O)C(=O)N[C@H]2C(=O)N[C@H]3C(=O)N[C@H](C(=O)N[C@H](C(=O)O)c4cc(O)cc(O)c4-c4cc3ccc4O)[C@H](O[C@H]3C[C@](C)(N)[C@@H](O)[C@H](C)O3)c3ccc(c(Cl)c3)Oc3cc2cc(c3O[C@@H]2O[C@H](CO)[C@@H](O)[C@H](O)[C@H]2O[C@H]2C[C@](C)(NCc3ccc(-c4ccc(Cl)cc4)cc3)[C@@H](O)[C@H](C)O2)Oc2ccc(cc2Cl)[C@H]1O [Oritavancin], the Bliss interaction score with B. subtilis 168 was 0.0325; in the experiment on S. aureus DSM 20231 it was -0.0405; with S. aureus Newman, -0.0766; in the experiment with S. pneumoniae D39V, 0.0492.
In the case of `O=C(O)[C@H]1/C(=C/CO)O[C@@H]2CC(=O)N21` [Clavulanic] + CN[C@H](CC(C)C)C(=O)N[C@H]1C(=O)N[C@@H](CC(N)=O)C(=O)N[C@H]2C(=O)N[C@H]3C(=O)N[C@H](C(=O)N[C@H](C(=O)O)c4cc(O)cc(O)c4-c4cc3ccc4O)[C@H](O[C@H]3C[C@](C)(N)[C@@H](O)[C@H](C)O3)c3ccc(c(Cl)c3)Oc3cc2cc(c3O[C@@H]2O[C@H](CO)[C@@H](O)[C@H](O)[C@H]2O[C@H]2C[C@](C)(NCc3ccc(-c4ccc(Cl)cc4)cc3)[C@@H](O)[C@H](C)O2)Oc2ccc(cc2Cl)[C@H]1O [Oritavancin], the Bliss interaction score in the experiment on B. subtilis 168 is -0.0388; in the experiment with S. aureus DSM 20231, 0.0726; in the experiment with S. aureus Newman, 0.197; in the experiment with S. pneumoniae D39V, 0.0545.
Consider `Cc1onc(-c2ccccc2)c1C(=O)N[C@@H]1C(=O)N2[C@@H]1SC(C)(C)[C@@H]2C(=O)O` [Oxacillin] + Oc1cc(Cl)ccc1Oc1ccc(Cl)cc1Cl [Triclosan], for which the Bliss interaction score in the experiment on B. subtilis 168 amounted to 0.025; in the experiment with S. aureus DSM 20231 it was 0.0454; in the experiment on S. aureus Newman, 0.0273; in the experiment on S. pneumoniae D39V it was 0.0852.
As for `O=C(O)[C@H]1/C(=C/CO)O[C@@H]2CC(=O)N21` [Clavulanic] + CCN(CC)CCOC(=O)c1ccc(N)cc1 [Procaine], the Bliss interaction score with B. subtilis 168 was -0.0363; with S. aureus DSM 20231, 0.0977; in the experiment with S. aureus Newman, -0.0729; with S. pneumoniae D39V, 0.0863.
Regarding `CC1=C(C(=O)O)N2C(=O)[C@@H](NC(=O)[C@H](N)c3ccccc3)[C@H]2SC1` [Cephalexin] + CO[C@@]12[C@H](COC(N)=O)C3=C(C(=O)C(C)=C(N)C3=O)N1C[C@@H]1N[C@@H]12 [MitomycinC], the Bliss interaction score with B. subtilis 168 was -0.0415; in the experiment on S. aureus DSM 20231 it was 0.0608; with S. aureus Newman, 0.0613; in the experiment with S. pneumoniae D39V it was -0.0789.
As for `C[n+]1ccc(-c2cc[n+](C)cc2)cc1` [Paraquat] + CC[C@H]1OC(=O)[C@H](C)C(=O)[C@H](C)[C@@H](O[C@@H]2O[C@H](C)C[C@H](N(C)C)[C@H]2O)[C@](C)(OC)C[C@@H](C)C(=O)[C@H](C)[C@H]2N(CCCCn3cnc(-c4cccnc4)c3)C(=O)O[C@]12C [Telithromycin], the Bliss interaction score in the experiment on B. subtilis 168 was -0.0235; in the experiment with S. aureus DSM 20231, 0.0414; with S. aureus Newman it was -0.0252; in the experiment with S. pneumoniae D39V it was 0.0949.
Consider `O=C(O)[C@H]1/C(=C/CO)O[C@@H]2CC(=O)N21` [Clavulanic] + CO[C@@H]1[C@@H](OC(N)=O)[C@@H](O)[C@H](Oc2ccc3c(O)c(NC(=O)c4ccc(O)c(CC=C(C)C)c4)c(=O)oc3c2C)OC1(C)C [Novobiocin], for which the Bliss interaction score is 0.0384 in the experiment with B. subtilis 168, 0.116 with S. aureus DSM 20231, 0.177 in the experiment on S. aureus Newman and -0.0784 in the experiment on S. pneumoniae D39V.
